Source: article PMC5384962, “First-in-human studies of seletalisib, an orally bioavailable small-molecule PI3Kδ inhibitor for the treatment of immune and inflammatory diseases” (European Journal of Clinical Pharmacology, 2017)
Like-named read-outs stand apart in the source and are kept apart here.

How the values were obtained:
[1] = Study-2 single-dose pharmacokinetics (plasma); type: in vivo, human; details: for AUC(0-t) / half-life / Cmax / Tmax / AUC / MRT / Vd/F: human, plasma, oral; for Vd/F: read-out: Vz/F
Text: (§1) These were phase I, randomised, double-blind, placebo-controlled studies designed to evaluate the safety, tolerability, PK and PD profiles of seletalisib following oral administration of single ascending doses and multiple ascending doses. Study-1 was a first-in-human, double-blind (sponsor-, investigator- and subject-blind) study that had two parts: Part-A evaluated seletalisib (single ascending doses) in healthy adults (including evaluation of food effects; Table 1); Part-B evaluated seletalisib (multiple ascending doses) in healthy adults and subjects with mild-to-moderate psoriasis. Study-2 was also a double-blind study of seletalisib (single and multiple ascending doses) in healthy subjects, which investigated higher doses.
(§2) Plasma concentrations of seletalisib were measured by high-performance liquid chromatography with tandem mass spectrometry (see Online Resource S1 for further details). The following PK parameters were determined in each study: AUC for seletalisib, maximum observed plasma concentration of seletalisib after a single dose (Cmax) and at steady-state (Cmaxss), time of occurrence of Cmax (tmax, obtained directly from the observed plasma concentration-time curves), minimum observed plasma concentration of seletalisib at steady-state immediately before the next dose would be administered (Ctrough), apparent terminal half-life, apparent volume of distribution after single dosing (Vz/F) and at steady-state (Vzss/F) and apparent total body clearance after single dosing (CL/F) and at steady-state (CLss/F). Accumulation factor based on AUC(0–24) [R(AUC)] and accumulation factor based on Cmax [R(Cmax)] were determined on multiple dose day 14. The following study-specific PK parameters were also determined: Study-1, total amount of seletalisib excreted in urine (Ae), renal clearance (CLr) and fraction of drug excreted in urine; Study-2, AUC(0–10) in BID dose groups, terminal elimination rate constant in plasma (λz), mean residence time (MRT) and linearity factor (LF [AUC(0–24)ss/AUC]).
(§3) Methods for the calculation of seletalisib PK parameters are detailed in Online Resource S1.
(§4) Seletalisib PK parameters were calculated via non-compartmental analysis methods from the individual concentration-time data using Phoenix WinNonlin version 6.2 (Certara, Princeton, NJ, USA). Urine (Study-1 only) and plasma PK parameters of seletalisib were reported for each subject and summarised by study part and dose group. Geometric mean and percentage geometric coefficient of variation (GeoCV%) were reported for all parameters except for tmax, which was reported using median and range. Dose proportionality for AUC and Cmax at Day_1 (Study-1 [Part-A & Part-B]; Study-2, single ascending dose-Day_1) and at steady state at Day_14 (Study-1 [Part-B]; Study-2, multiple ascending dose-Day_14) was examined via the power model and reported graphically. In Study-1, an assessment of food effect (fed versus fasted) was made for Cmax and AUC from the data for subjects who received the same dose in fed and fasted states in Part-A.

[2] = test system: basophil degranulation; test: Study-2 ex vivo basophil degranulation (anti-FcεR1-driven CD63 expression, whole blood); details: Study-2, single dose, by 4 h post-dose on day 1, range across groups
Method: Subjects were assessed for basophil degranulation following stimulation at multiple time points, as described in Online Resource S1.
Degranulation of basophils was determined in whole blood by monitoring increased cell surface CD63 expression utilizing flow cytometry in an ex vivo stimulation assay driven by anti-IgE (Study-1) or anti-FcεR1 (Study-2). Briefly, blood was collected in lithium-heparin tubes (BD Biosciences, Oxford, UK) and stimulated with IgE or FcεRI cross-linking antibodies (eBiosciences, Hatfield, UK) for 12 min at 37°C. Following red blood cell lysis by addition of BD FACSlyse (BD Biosciences, Oxford, UK), samples were centrifuged and the supernatant discarded. The cell pellet was washed in PBS and re-suspended in fixative (5% formaldehyde in PBS). CD63 expression was determined on basophils (side-scatter low, CD123+HLA-DR-) and detected by flow cytometry using the BD antibody cocktail containing CD63, CD123, and anti-HLA-DR.

[3] = Study-1 Part-B multiple ascending dose pharmacokinetics (plasma and urine); type: in vivo, human; details: for Fe(0–24) / CLss/F / Cmaxss / Ctrough / Vzss/F / AUC(0-t) / Tmax / Cmax / half-life / CL renal / Ae(0–24): Study-1 Part-B; for Fe(0–24) / CLss/F / Cmaxss / Ctrough / Vzss/F / AUC(0-t) / Cmax / half-life / CL renal / Ae(0–24): geo mean (GeoCV%); for AUC(0-t) / Tmax / Cmax / half-life / CL renal: human, oral; for AUC(0-t) / Tmax / Cmax / half-life: plasma; for AUC(0-t): read-out: AUC(0–24); for CL renal: urine and plasma; for Ae(0–24): urine
Text: as §1, §2, §3, §4

[4] = Study-2 single dose, 30 mg QD cohort, geo mean (GeoCV%)
[5] = Study-2 single dose, 45 mg QD cohort, geo mean (GeoCV%)
[6] = Study-2 single dose, 60 mg QD cohort, geo mean (GeoCV%)
[7] = Study-2 single dose, 90 mg QD cohort, geo mean (GeoCV%)
[8] = power model, Study-1 Part B Day 14

## [O-][n+]1cccc(-c2nc3c(Cl)cccc3cc2[C@@H](Nc2ncnc3cccnc23)C(F)(F)F)c1 [Seletalisib, seletalisib]
[1]; [4]
  CL/F: 2.65 (30.4) L/h
  AUC: 11300 ng·h/mL
  MRT: 22.1 h
  Vd/F: 74.4 L
[1]; [5]
  CL/F: 2.61 (33.0) L/h
  AUC: 17300 ng·h/mL
  MRT: 23 h
  Vd/F: 84.2 L
[1]; [6]
  CL/F: 2.19 (32.3) L/h
  AUC: 27400 ng·h/mL
  MRT: 21.5 h
  Vd/F: 57.2 L
[1]; [7]
  CL/F: 2.58 (33.3) L/h
  AUC: 34900 ng·h/mL
  MRT: 22.4 h
  Vd/F: 77.3 L
[1]; 30 mg, Study-2 single dose, 30 mg QD cohort, geo mean (GeoCV%), read-out: AUC(0–24)
  AUC(0-t): 6490 ng·h/mL
[1]; 30 mg, Study-2 single dose, 30 mg QD cohort, geo mean (GeoCV%), read-out: AUC(0–t)
  AUC(0-t): 10200 ng·h/mL
[1]; 30 mg, Study-2 single-dose part, 30 mg BID cohort, geo mean (GeoCV%), read-out: AUC(0–10)
  AUC(0-t): 3500 ng·h/mL
[1]; 45 mg, Study-2 single dose, 45 mg QD cohort, geo mean (GeoCV%), read-out: AUC(0–24)
  AUC(0-t): 9280 ng·h/mL
[1]; 45 mg, Study-2 single dose, 45 mg QD cohort, geo mean (GeoCV%), read-out: AUC(0–t)
  AUC(0-t): 15100 ng·h/mL
[1]; 60 mg, Study-2 single dose, 60 mg QD cohort, geo mean (GeoCV%), read-out: AUC(0–24)
  AUC(0-t): 16300 ng·h/mL
[1]; 60 mg, Study-2 single dose, 60 mg QD cohort, geo mean (GeoCV%), read-out: AUC(0–t)
  AUC(0-t): 25100 ng·h/mL
[1]; 90 mg, Study-2 single dose, 90 mg QD cohort, geo mean (GeoCV%), read-out: AUC(0–24)
  AUC(0-t): 19700 ng·h/mL
[1]; 90 mg, Study-2 single dose, 90 mg QD cohort, geo mean (GeoCV%), read-out: AUC(0–t)
  AUC(0-t): 31200 ng·h/mL
[1]; Study-2, range across dose groups, read-out: geometric mean t1/2
  half-life: 18.1 to 22.4 h
[1]; Study-2, single dose, range across groups, read-out: geometric mean Cmax
  Cmax: 517 to 1510 ng/mL
[1]; Study-2, single dose, range across groups, read-out: median tmax
  Tmax: 3 to 4 h
[1]; Study-2 single dose, 30 mg QD cohort, geo mean (GeoCV%), read-out: Cmax
  Cmax: 517 ng/mL
[1]; Study-2 single dose, 30 mg QD cohort, geo mean (GeoCV%), read-out: t1/2 (converted)
  half-life: 19.5 h
[1]; Study-2 single dose, 30 mg QD cohort, median (range), read-out: tmax
  Tmax: 4 h
[1]; Study-2 single dose, 45 mg QD cohort, geo mean (GeoCV%), read-out: Cmax
  Cmax: 691 ng/mL
[1]; Study-2 single dose, 45 mg QD cohort, geo mean (GeoCV%), read-out: t1/2 (converted)
  half-life: 22.4 h
[1]; Study-2 single dose, 45 mg QD cohort, median (range), read-out: tmax
  Tmax: 4 h
[1]; Study-2 single dose, 60 mg QD cohort, geo mean (GeoCV%), read-out: Cmax
  Cmax: 1250 ng/mL
[1]; Study-2 single dose, 60 mg QD cohort, geo mean (GeoCV%), read-out: t1/2 (converted)
  half-life: 18.1 h
[1]; Study-2 single dose, 60 mg QD cohort, median (range), read-out: tmax
  Tmax: 3 h
[1]; Study-2 single dose, 90 mg QD cohort, geo mean (GeoCV%), read-out: Cmax
  Cmax: 1510 ng/mL
[1]; Study-2 single dose, 90 mg QD cohort, geo mean (GeoCV%), read-out: t1/2 (converted)
  half-life: 20.8 h
[1]; Study-2 single dose, 90 mg QD cohort, median (range), read-out: tmax
  Tmax: 4 h
[2]
  inhibition of basophil degranulation: 80.3–92.5%
[3]; Study-1 Part-A and Part-B, parent drug, across dose groups
  geometric mean fraction of drug excreted in urine: ≤ 12%
[3]; 5 mg, Day 1
  Fe(0–24): 4.02 (32.2) %
  Cmax: 122 ng/mL
  Ae(0–24): 0.201 (32.2) mg
[3]; 5 mg, Day 14
  CLss/F: 1.97 (36.2) L/h
  Cmaxss: 175 (29.1) ng/mL
  Ctrough: 66.5 (47.3) ng/mL
  Fe(0–24): 6.80 (40.0) %
  Vzss/F: 62.5 (20.0) L
  half-life: 22 h
  Ae(0–24): 0.340 (40.0) mg
[3]; 8 mg, Day 1
  Fe(0–24): 4.24 (51.9) %
  Cmax: 201 ng/mL
  Ae(0–24): 0.340 (51.9) mg
[3]; 8 mg, Day 14
  CLss/F: 1.83 (50.2) L/h
  Cmaxss: 285 (41.7) ng/mL
  Ctrough: 113 (67.8) ng/mL
  Fe(0–24): 7.60 (26.3) %
  Vzss/F: 60.3 (40.1) L
  half-life: 22.8 h
  Ae(0–24): 0.608 (26.3) mg
[3]; 15 mg, Day 1
  Fe(0–24): 5.42 (48.2) %
  Cmax: 322 ng/mL
  Ae(0–24): 0.812 (48.2) mg
[3]; 15 mg, Day 14
  CLss/F: 2.75 (29.9) L/h
  Cmaxss: 414 (23.0) ng/mL
  Ctrough: 140 (35.0) ng/mL
  Fe(0–24): 12.0 (52.8) %
  Vzss/F: 89.0 (24.9) L
  half-life: 22.5 h
  Ae(0–24): 1.80 (52.8) mg
[3]; 5 mg, 5 mg, Day 1
  AUC(0-t): 1560 ng·h/mL
  CL renal: 2.15 mL/min
[3]; 5 mg, 5 mg, Day 1, median (range), read-out: tmax
  Tmax: 4.01 h
[3]; 5 mg, 5 mg, Day 14
  AUC(0-t): 2540 ng·h/mL
  CL renal: 2.23 mL/min
[3]; 5 mg, 5 mg, Day 14, median (range), read-out: tmax
  Tmax: 3 h
[3]; 8 mg, 8 mg, Day 1
  AUC(0-t): 2610 ng·h/mL
  CL renal: 2.17 mL/min
[3]; 8 mg, 8 mg, Day 1, median (range), read-out: tmax
  Tmax: 4 h
[3]; 8 mg, 8 mg, Day 14
  AUC(0-t): 4370 ng·h/mL
  CL renal: 2.32 mL/min
[3]; 8 mg, 8 mg, Day 14, median (range), read-out: tmax
  Tmax: 3.5 h
[3]; 15 mg, 15 mg, Day 1
  AUC(0-t): 3940 ng·h/mL
  CL renal: 3.43 mL/min
[3]; 15 mg, 15 mg, Day 1, median (range), read-out: tmax
  Tmax: 3.01 h
[3]; 15 mg, 15 mg, Day 14
  AUC(0-t): 5460 ng·h/mL
  CL renal: 5.48 mL/min
[3]; 15 mg, 15 mg, Day 14, median (range), read-out: tmax
  Tmax: 3 h
[3]; day 1, fed, range across groups, read-out: time to peak plasma concentration
  Tmax: 3.01 to 4.01 h
[3]; day 14, fed, range across groups, read-out: time to peak plasma concentration
  Tmax: 3 to 3.5 h
[3]; [8]
  Dose proportionality of Cmaxss (ng/mL): Dose (beta), Estimate: 0.78
  Dose proportionality of Cmaxss (ng/mL): Intercept, Estimate: 3.95
